Patent US9586970B2, “Imidazole derivatives” (Hoffmann-La Roche Inc., priority 2014, dated 2017)

target: human PDE10A (Homo sapiens (Human), UniProt Q9Y233); test: human PDE10A full length assay ([3H]-cGMP SPA); format: biochemical; conditions: full length PDE10A enzyme, 50 nM cGMP + 50 nM [3H]-cGMP, 20 minutes at room temperature; read-out: PDE10A inhibition IC50
Experimental: The human PDE10A full length assay was performed in 96-well micro titer plates. The reaction mixture of 50 μl contained 20 mM HEPES pH=7.5/10 mM MgCl2/0.05 mg/ml BSA (Sigma cat. #A-7906), 50 nM cGMP (Sigma, cat. #G6129) and 50 nM [3H]-cGMP (GE Healthcare, cat. #TRK392 S.A. 13.2 Ci/mmol), 3.75 ng/well PDE10A enzyme (Enzo Life Science, Lausen, Switzerland cat #SE-534) with or without a specific test compound. A range of concentrations of the potential inhibitor was used to generate data for calculating the concentration of inhibitor resulting in 50% of the effect (e.g. IC50, the concentration of the competitor inhibiting PDE10A activity by 50%). Non-specific activity was tested without the enzyme. The reaction was initiated by the addition of the substrate solution (cGMP and [3H]-cGMP) and allowed to progress for 20 minutes at room temperature. The reaction was terminated by adding 25 μl of YSi-SPA scintillation beads (GE Healthcare, cat. # RPNQ0150) in 18 mM zinc sulphate solution (stop reagent). After 1 h under shaking, the plate was centrifuged one minute at 170 g to allow beads to settle. Afterwards, radioactive counts were measured on a Perkin Elmer TopCount Scintillation plate reader.

Sequence of human PDE10A (Q9Y233 other isoform, or with tags, fused parts or gaps): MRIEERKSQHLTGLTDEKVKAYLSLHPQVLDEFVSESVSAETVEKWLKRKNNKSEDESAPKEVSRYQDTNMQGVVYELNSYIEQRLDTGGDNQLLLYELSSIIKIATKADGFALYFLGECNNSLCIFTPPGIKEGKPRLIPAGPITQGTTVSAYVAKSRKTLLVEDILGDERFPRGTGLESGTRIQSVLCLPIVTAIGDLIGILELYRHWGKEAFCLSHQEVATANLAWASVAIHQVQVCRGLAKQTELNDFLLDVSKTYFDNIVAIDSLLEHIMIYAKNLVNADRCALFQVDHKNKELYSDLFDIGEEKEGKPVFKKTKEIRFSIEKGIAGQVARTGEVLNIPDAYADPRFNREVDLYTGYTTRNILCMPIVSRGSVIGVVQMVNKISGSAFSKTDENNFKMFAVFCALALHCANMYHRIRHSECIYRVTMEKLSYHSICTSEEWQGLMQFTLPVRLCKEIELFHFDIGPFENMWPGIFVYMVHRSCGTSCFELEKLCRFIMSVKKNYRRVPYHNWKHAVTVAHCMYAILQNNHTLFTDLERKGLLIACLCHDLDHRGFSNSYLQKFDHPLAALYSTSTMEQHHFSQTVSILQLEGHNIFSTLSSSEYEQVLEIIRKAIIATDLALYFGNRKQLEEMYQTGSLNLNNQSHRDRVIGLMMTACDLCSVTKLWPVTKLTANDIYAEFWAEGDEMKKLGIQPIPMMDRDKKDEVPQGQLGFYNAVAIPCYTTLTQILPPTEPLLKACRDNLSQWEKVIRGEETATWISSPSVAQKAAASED

Row | Compound | IC50
1 | 1-{2-[(E)-2-{4,7-Dimethyl-[1,2,4]triazolo[1,5-a]pyrazin-2-yl}ethenyl]-1-phenyl-1H-imidazol-4-yl}pyrrolidin-2-one [Example 20] | 19.4 nM
2 | Cc1cnc(C)n2nc(CCc3nc(N4CCCC4=O)cn3C)nc12 [Example 1, 1-(2-(2-(5,8-dimethyl-[1,2,4]triazolo[1,5-c]pyrimidin-2-yl)ethyl)-1-methyl-1H-imidazol-4-yl)pyrrolidin-2-one] | 39 nM
3 | Cc1ncc(C)n2nc(CCc3nc(N4CCCC4=O)cn3-c3ccccc3)nc12 [Example 2, 1-(2-(2-(5,8-dimethyl-[1,2,4]triazolo[1,5-a]pyrazin-2-yl)ethyl)-1-phenyl-1H-imidazol-4-yl)pyrrolidin-2-one] | 1.3 nM
4 | Cc1ncc(C)n2nc(/C=C/c3nc(N4CCCC4=O)cn3-c3ccccc3)nc12 [Example 3] | 9.5 nM
5 | Cc1ncc(C)n2nc(CCc3nc(-n4ccccc4=O)cn3CC3CC3)nc12 [Example 4, 1-(1-(Cyclopropylmethyl)-2-(2-(5,8-dimethyl-[1,2,4]triazolo[1,5-a]pyrazin-2-yl)ethyl)-1H-imidazol-4-yl)pyridin-2(1H)-one] | 150 nM
6 | Cc1ncc(C)n2nc(CCc3nc(-n4ccccc4=O)cn3C)nc12 [Example 5, 1-(2-(2-(5,8-dimethyl-[1,2,4]triazolo[1,5-a]pyrazin-2-yl)ethyl)-1-methyl-1H-imidazol-4-yl)pyridin-2(1H)-one] | 195 nM
7 | Cc1ncc(C)n2nc(/C=C/c3nc(N4CCCC4=O)cn3C3CC3)nc12 [Example 6, 1-[1-cyclopropyl-2-[(E)-2-(5,8-dimethyl-[1,2,4]triazolo[1,5-a]pyrazin-2-yl)ethenyl]imidazol-4-yl]pyrrolidin-2-one] | 81 nM
8 | Cc1ncc(C)n2nc(CCc3nc(N4CCCC4=O)cn3C3CC3)nc12 [Example 7, 1-{1-Cyclopropyl-2-[2-(5,8-dimethyl-[1,2,4]triazolo[1,5-a]pyrazin-2-yl)-ethyl]-1H-imidazol-4-yl}-pyrrolidin-2-one] | 27 nM
9 | Cc1ncc(C)n2nc(/C=C/c3nc(N4CCN(C)C4=O)cn3C)nc12 [Example 8, 2′-[(E)-2-(5,8-Dimethyl-[1,2,4]triazolo[1,5-a]pyrazin-2-yl)-vinyl]-3, 1′-dimethyl-4,5-dihydro-3H, 1′H-[1,4′]biimidazolyl-2-one] | 162 nM
10 | Cc1nc(C#Cc2nc(N3CCCC3=O)cn2C)nc2c(C)cccc12 [Example 9, 1-(2-((4,8-dimethylquinazolin-2-yl)ethynyl)-1-methyl-1H-imidazol-4-yl)pyrrolidin-2-one] | 4.6 nM
11 | Cc1ncc(C)n2nc(/C=C/c3nc(N4CCCC4=O)cn3C)nc12 [Example 10, 1-{2-[(E)-2-{4,7-dimethyl-[1,2,4]triazolo[1,5-a]pyrazin-2-yl}ethenyl]-1-methyl-1H-imidazol-4-yl}pyrrolidin-2-one] | 54.6 nM
12 | Cc1ncc(C)n2nc(CCc3nc(N4CCCC4=O)cn3C)nc12 [Example 11, 1-[2-(2-{4,7-Dimethyl-[1,2,4]triazolo[1,5-a]pyrazin-2-yl}ethyl)-1-methyl-1H-imidazol-4-yl]pyrrolidin-2-one] | 18 nM
13 | Cc1ncc(C)n2nc(CCc3nc(N4CCCC4=O)cn3CC3CC3)nc12 [Example 12, 1-[1-(Cyclopropylmethyl)-2-(2-{4,7-dimethyl-[1,2,4]triazolo[1,5-a]pyrazin-2-yl}ethyl)-1H-imidazol-4-yl]pyrrolidin-2-one] | 16.9 nM
14 | Cc1ncc(C)n2nc(CCc3nc(N4CCCC4=O)cn3CC(F)(F)F)nc12 [Example 13, 1-[2-(2-{4,7-Dimethyl-[1,2,4]triazolo[1,5-a]pyrazin-2-yl}ethyl)-1-(2,2,2-trifluoroethyl)-1H-imidazol-4-yl]pyrrolidin-2-one] | 36.7 nM
15 | Cc1ncc(C)n2nc(CCc3nc(N4CCCC4=O)cn3CC(F)F)nc12 [Example 14, 1-[1-(2,2-difluoroethyl)-2-(2-{4,7-dimethyl-[1,2,4]triazolo[1,5-a]pyrazin-2-yl}ethyl)-1H-imidazol-4-yl]pyrrolidin-2-one] | 46.9 nM
16 | Cc1ncc(C)n2nc(C#Cc3nc(N4CCCC4=O)cn3C)nc12 [Example 15, 1-[2-(2-{4,7-Dimethyl-[1,2,4]triazolo[1,5-a]pyrazin-2-yl}ethynyl)-1-methyl-1H-imidazol-4-yl]pyrrolidin-2-one] | 29 nM
17 | Cc1cnc(C)n2nc(CCc3nc(N4CCCC4=O)cn3CC3CC3)nc12 [Example 16, 1-[1-(Cyclopropylmethyl)-2-(2-{5,8-dimethyl-[1,2,4]triazolo[1,5-c]pyrimidin-2-yl}ethyl)-1H-imidazol-4-yl]pyrrolidin-2-one] | 14.8 nM
18 | Cc1cnc(C)n2nc(CCc3nc(N4CCCC4=O)cn3-c3ccccc3)nc12 [Example 17, 1-[2-[2-(5,8-dimethyl-[1,2,4]triazolo[1,5-c]pyrimidin-2-yl)ethyl]-1-phenyl-imidazol-4-yl]pyrrolidin-2-one] | 3.2 nM
19 | Cc1cnc(C)n2nc(CCc3nc(N4CCCC4=O)cn3CC(F)(F)F)nc12 [Example 18, 1-[2-(2-{5,8-dimethyl-[1,2,4]triazolo[1,5-c]pyrimidin-2-yl}ethyl)-1-(2,2,2-trifluoroethyl)-1H-imidazol-4-yl]pyrrolidin-2-one] | 168 nM
20 | Cc1cnc(C)n2nc(CCc3nc(N4CCCC4=O)cn3CC(F)F)nc12 [Example 19, 1-[1-(2,2-difluoroethyl)-2-(2-{5,8-dimethyl-[1,2,4]triazolo[1,5-c]pyrimidin-2-yl}ethyl)-1H-imidazol-4-yl]pyrrolidin-2-one] | 26.8 nM
21 | Cc1cc(C)n2nc(CCc3nc(N4CCCC4=O)cn3C)nc2n1 [Example 21, 1-[2-(2-{5,7-dimethyl-[1,2,4]triazolo[1,5-a]pyrimidin-2-yl}ethyl)-1-methyl-1H-imidazol-4-yl]pyrrolidin-2-one] | 176 nM
22 | Cc1c(C(F)(F)F)nc2ccc(CCc3nc(N4CCCC4=O)cn3C)nn12 [Example 22, 1-(1-Methyl-2-{2-[3-methyl-2-(trifluoromethyl)imidazo[1,2-b]pyridazin-6-yl]ethyl}-1H-imidazol-4yl) pyrrolidin-2-one] | 117 nM
23 | Cc1c(C(F)(F)F)nc2ccc(CCc3nc(N4CCCC4=O)cn3-c3ccccc3)nn12 [Example 23, 1-(2-{2-[3-Methyl-2-(trifluoromethyl)imidazo[1,2-b]pyridazin-6-yl]ethyl}-1-phenyl-1H-imidazol-4yl)pyrrolidin-2-one] | 3.1 nM
24 | Cc1c(C(F)(F)F)nc2ccc(C#Cc3nc(N4CCCC4=O)cn3C)nn12 [Example 24, 1-(1-Methyl-2-{2-[3-methyl-2-(trifluoromethyl)imidazo[1,2-b]pyridazin-6-yl]ethynyl}-1H-imidazol-4-yl)pyrrolidin-2-one] | 75.5 nM
25 | Cc1c(C(F)(F)F)nc2ccc(C#Cc3nc(N4CCCC4=O)cn3-c3ccccc3)nn12 [Example 25, 1-(2-{2-[3-methyl-2-(trifluoromethyl)imidazo[1,2-b]pyridazin-6-yl]ethynyl}-1-phenyl-1H-imidazol-4-yl) pyrrolidin-2-one] | 21.9 nM
26 | CNC(=O)c1cc(CCc2nc(N3CCCC3=O)cn2C)nn2c(C)c(C(F)(F)F)nc12 [Example 26] | 112 nM
27 | CNC(=O)c1cc(CCc2nc(N3CCCC3=O)cn2-c2ccccc2)nn2c(C)c(C(F)(F)F)nc12 [Example 27, N,3-Dimethyl-6-{2-[4-(2-oxopyrrolidin-1-yl)-1-phenyl-1H-imidazol-2-yl]ethyl}-2-(trifluoromethyl)imidazo[1,2-b]pyridazine-8-carb oxamide] | 2.9 nM
